According to PubChem BioAssay AID1996:
≈ marks a conversion by molar mass, not a printed value.

Conditions: buffer; pH 7.4; 200.0 µM

Structure (SMILES) | solubility kinetic
Cc1ccc(C(=O)Nc2ccc(C(=O)N3CCCCC3)cc2)o1 | > 46.9 µg/mL
COc1cc(Nc2ncnc(N)n2)cc(OC)c1 | > 37.1 µg/mL
CN1CCN(C(=O)c2cc(=O)c3cc(Cl)ccc3o2)CC1 | > 46 µg/mL
NC(=O)COC(=O)Cc1coc2cc3c(cc12)CCC3 | 35.6 µg/mL (≈ 130 µM)
Cc1ccccc1Nc1c([N+](=O)[O-])ccc2nonc12 | 0.2 µg/mL (≈ 0.74 µM)
O=C(COC(=O)/C=C/c1ccccc1Cl)NCC1CCCO1 (stereo unspecified) | 31.9 µg/mL (≈ 98.5 µM)
O=C(COc1ccc2cc(Br)ccc2c1Br)N1CCOCC1 | 13.9 µg/mL (≈ 32.4 µM)
CCCOc1ccc(N2C(=O)CC(N(CCCO)C(=O)CC)C2=O)cc1 (stereo unspecified) | > 54.4 µg/mL
CC(=O)N/C(=C\c1ccccc1)C(=O)OCC(=O)NC1CCS(=O)(=O)C1 (stereo unspecified) | > 57.1 µg/mL
O=C(Cc1ccccc1)c1c[nH]c(C(=O)NCc2ccncc2)c1 | 6.1 µg/mL (≈ 19.1 µM)
CN(C(=O)c1cc(-c2ccc3c(c2)OCO3)on1)c1ccccc1 | 6.8 µg/mL (≈ 21.1 µM)
O=C(NC1CC1)c1c(O)c2ccccc2[nH]c1=O | 2.8 µg/mL (≈ 11.5 µM)
CCOC(=O)C1CCN(C(=O)c2cc3cc(Cl)ccc3[nH]2)CC1 | 19 µg/mL (≈ 56.7 µM)
Cc1ccc2c(c1)cc(C(=O)NCc1ccccc1)n2C | 3.5 µg/mL (≈ 12.6 µM)
CCc1cc(C(=O)Nc2ncccc2O)sc1C | > 39.3 µg/mL
COC(=O)CC1C(=O)NC2CCCCC2N1C(=O)CCl (stereo unspecified) | > 45.4 µg/mL
N#Cc1cccc(NC(=O)CN2CCN(Cc3ccccc3)CC2)c1 | 49.8 µg/mL (≈ 149 µM)
O=C(Cn1cncn1)N/N=C/c1ccccc1O | > 36.8 µg/mL
COc1ccc(C(=O)COc2ccccc2C#N)cc1 | 3.6 µg/mL (≈ 13.5 µM)
O=C(CN1C(=O)NC2(CCCC2)C1=O)Nc1cc(C(F)(F)F)ccc1N1CCOCC1 | 5.2 µg/mL (≈ 11.8 µM)

Structure (SMILES) | solubility kinetic
COc1cc2nc(C(C)(C)C)oc(=O)c2cc1OC | > 39.5 µg/mL
COc1ccccc1C(=O)C1CCCN(C(=O)Nc2ccccc2F)C1 (stereo unspecified) | > 53.5 µg/mL
CC1CCCCC1NC(=S)NC(=O)c1cccs1 (stereo unspecified) | 5.5 µg/mL (≈ 19.5 µM)
COc1ccc(NC(=O)CNc2ccc(C#N)cc2)cc1 | > 42.2 µg/mL
CCOC(=O)C1=C(C)NC(C)=C(C(=O)OCC)C1C(=O)OCC(=O)NCCc1ccccc1 | > 68.8 µg/mL
CC(C)[C@H](NC(=O)c1ccccc1)C(=O)NC1CCCCCCC1 | 1.8 µg/mL (≈ 5.45 µM)
C/C(=C\c1cccc(Cl)c1Cl)C(=O)c1c(C)cc(C)[nH]c1=O | 3.5 µg/mL (≈ 10.4 µM)
O=C(Cn1cc(C(F)(F)F)ccc1=O)N1CCCc2ccccc21 | > 50.4 µg/mL
COc1ccccc1/C=C/C(=O)NCCc1ccccn1 | 41.9 µg/mL (≈ 148 µM)
COc1ccc(NC(=O)COC(=O)CCC2CCCCC2)cc1 | 19.4 µg/mL (≈ 60.7 µM)
Cc1cccc(C)c1NC(=S)N1CCCN(C)CC1 | > 41.6 µg/mL
O=C(Nc1nccs1)c1ccccc1Br | 6.2 µg/mL (≈ 21.9 µM)
O=C(O)CCC(=O)NN1C(=O)c2ccccc2NC1c1ccc(F)cc1 (stereo unspecified) | > 53.6 µg/mL
O=[N+]([O-])c1ccc(Oc2cccnc2)nc1 | 25.5 µg/mL (≈ 117 µM)
O=C(/C=C/c1cccc(F)c1)Nc1ccc(S(=O)(=O)N2CCOCC2)cc1 | 1 µg/mL (≈ 2.56 µM)
S=C(NCc1ccncc1)Nc1ccc(Br)cc1Cl | 40.9 µg/mL (≈ 115 µM)
COc1ccc(OC)c(NC2=NCCS2)c1 | > 35.7 µg/mL
CCNC(=S)Nc1ccc(OCc2nc3ccccc3s2)cc1 | 2.8 µg/mL (≈ 8.15 µM)
Cn1nc(C(F)(F)F)c2cc(C(=O)N3CCOCC3)sc21 | > 47.9 µg/mL
C/C(N)=C(/C#N)C(=O)COC(=O)C1=NN(c2ccccc2)C(=O)CC1 | > 51.1 µg/mL

Structure (SMILES) | solubility kinetic
CCCNC(=S)N1CCC(n2cnc3ccccc32)CC1 | > 45.4 µg/mL
CCOc1ncccc1C(=O)Nc1nc(C(C)(C)C)cs1 | 0.6 µg/mL (≈ 1.96 µM)
Cc1ccc(C(=O)Nc2ccc(N3CCN(C)CC3)nc2)cc1 | > 46.6 µg/mL
CC(NCc1ccccc1O)C12CC3CC(CC(C3)C1)C2.Cl (stereo unspecified) | 41.9 µg/mL
CC1CC(C)(C)NC(=S)N1CCC(=O)NCc1ccc(F)cc1 (stereo unspecified) | > 50.6 µg/mL
CC(CNC(=O)COC(=O)c1ccco1)c1ccccc1 (stereo unspecified) | > 43.1 µg/mL
COc1ccc(C(=O)NC2CCCc3ccccc32)cc1[N+](=O)[O-] (stereo unspecified) | 2.4 µg/mL (≈ 7.35 µM)
COc1ccc(CCNC(=O)CSCC(=O)Nc2cc(S(C)(=O)=O)ccc2Cl)cc1 | 18.6 µg/mL (≈ 39.5 µM)
O=C(CSc1nccn1-c1cccc(Cl)c1)NO | > 42.6 µg/mL
O=C(NC(=S)NC1CCCCC1)c1ccc(F)cc1 | 2.1 µg/mL (≈ 7.49 µM)
COc1ccc(CCC(=O)Nc2nc(C)c(C(=O)N(C)C)s2)cc1 | 41.3 µg/mL (≈ 119 µM)
CN(C)CCCNC1=CC(=O)CC(c2ccccc2)C1 (stereo unspecified) | 34.8 µg/mL (≈ 128 µM)
CCOC(=O)Cn1nc(C)c(NC(=O)COc2cccc(Cl)c2)c1C | > 54.9 µg/mL
CCOC(=O)c1cc(NC(=O)Nc2cc(C)ccn2)c(C)nc1C | 0.3 µg/mL (≈ 0.914 µM)
CCN(C(=O)COC(=O)CCc1ccccc1)c1ccccc1 | 44.3 µg/mL (≈ 142 µM)
O=C1NC(=Nc2ccc(F)cc2)SC1Cc1ccc(F)cc1 (stereo unspecified) | 1 µg/mL (≈ 3.14 µM)
COc1ccc(C(=S)N2CCCC2)cc1Br | > 45 µg/mL
Cc1ccc(NS(=O)(=O)c2cccs2)nc1 | > 38.1 µg/mL

Continued, values first:

solubility kinetic | Structure (SMILES)
40.1 µg/mL (≈ 117 µM) | Cc1ccccc1OCC(=O)NCC(c1ccco1)N1CCCCC1 (stereo unspecified)
> 46.9 µg/mL | CCOC(=O)N1CCN(C(=O)c2ccc3ccccc3c2)CC1
1.1 µg/mL (≈ 3.87 µM) | Cc1ccc(-c2cn(-c3ccccc3F)c(=S)[nH]2)cc1
> 32.3 µg/mL | O=C(O)c1ccc2[nH]c3c(c2c1)CCCC3
39.9 µg/mL (≈ 148 µM) | CN(Cc1nc2ccccc2n1C)C(=O)c1ccco1
5.3 µg/mL (≈ 15.4 µM) | COc1ccc(CCNC(=O)Nc2ccc3c(c2)OCO3)cc1OC
5.1 µg/mL (≈ 15.4 µM) | Cc1onc(-c2c(Cl)cccc2Cl)c1C(=O)c1ccccc1
30.7 µg/mL (≈ 110 µM) | CCC(CC)NC(=O)COc1ccc(OC)cc1C=O
33.1 µg/mL (≈ 117 µM) | CCOC(=O)c1cccc(NC(=O)c2ccccc2C)c1
9.4 µg/mL (≈ 30.1 µM) | Cc1cc(=O)c2cc(NC(=O)c3ccccc3Cl)ccc2[nH]1
3.6 µg/mL | Br.Cc1ccnc(Nc2nc(-c3sc(C)nc3C)cs2)c1
5.1 µg/mL (≈ 14 µM) | O=C(Nc1cc(Cl)cc(Cl)c1)c1coc(=O)c(Br)c1
8.1 µg/mL (≈ 42.6 µM) | Cc1cccnc1NC1CCCCC1
11.4 µg/mL (≈ 38.6 µM) | CCOC(=O)c1ccc2c(c1)nc(-c1ccccn1)n2CC
> 64.1 µg/mL | CCOC(=O)Nc1ccc2c(c1)N(C(=O)CCN1CCOCC1)c1ccccc1S2
2.4 µg/mL (≈ 7.34 µM) | O=C(NCCc1ccc(Cl)cc1)c1cc(=O)[nH]c2ccccc12
46.9 µg/mL (≈ 150 µM) | N#Cc1c(CSCC(=O)O)cc(=O)n2c1[nH]c1ccccc12
50.9 µg/mL (≈ 142 µM) | CCCCN1C(=O)C(=O)N(CC(=O)NC2CCCc3ccccc32)C1=O (stereo unspecified)
4.5 µg/mL (≈ 17.8 µM) | Cc1cccc(Cn2c(=O)oc3ccc(C)cc32)c1
> 50.5 µg/mL | Cn1c(=O)c2c([nH]c(=S)n2Cc2ccc(Cl)cc2)n(C)c1=O
> 39.8 µg/mL | CN(Cc1ccccc1)S(=O)(=O)c1cn(C)cn1
30 µg/mL (≈ 121 µM) | Cc1cc(C)cc(NC(=S)NC(=O)C2CC2)c1
28.8 µg/mL (≈ 120 µM) | Cn1ccnc1SCC(=O)NC1CCCC1
31 µg/mL (≈ 118 µM) | COc1cccc(Oc2ncnc(N)c2[N+](=O)[O-])c1
> 43.6 µg/mL | CC1CCN(C(=O)CSc2nc3ncccc3[nH]2)CC1
50.6 µg/mL (≈ 146 µM) | Cn1c(NCCO)nc2c1c(=O)n(Cc1ccc(F)cc1)c(=O)n2C
> 62.2 µg/mL | N#Cc1cc([N+](=O)[O-])ccc1NC(=O)COC(=O)CN1C(=O)C2CCCCC2C1=O (stereo unspecified)
> 32 µg/mL | CN1CCN(NC(=O)CC(C)(C)C)CC1
